Assays:
[1] = molecular target: T1, NaV1.7 (Homo sapiens, UniProt Q15858); assay: Automated patch clamp (Qube 384), internal block of NaV1.7 in HEK293 cells; format: cell-based; settings: compound in internal solution, read-out: NaV1.7 Intracellular Inhibition
T1 construct: expressed in transfected cells; host or cells: HEK293, tetracycline-inducible
Procedure: (§1) NaV1.7 was expressed in HEK293 cells upon induction with tetracycline. Cells were cultured in DMEM containing 10% dialyzed Fetal Bovine Serum (VWR, Radnor, Pa.), 1% Glutamax (VWR, Radnor, Pa.), 1% Penicillin-Streptomycin (VWR, Radnor, Pa.), 100 mg/L Hygromycin (Thermo Fisher Scientific, Waltham, Mass. and 5 mg/L Blasticidin (Alfa Aesar, Haverhill, Mass.). Cells were grown and maintained at 37° C. in a humidified environment containing 10% CO2 in air. Cells were detached from the culture flask for passage and harvested using 0.05% Trypsin-EDTA (Thermo Fisher Scientific, Waltham, Mass.). To induce NaV1.7, cells were induced with tetracycline (0.1-1 μg/mL, IBI Scientific, Peosta, Iowa) the day before recording.
(§2) Before experiments, cells were washed with DPBS (VWR, Radnor, Pa.), digested with Detachin (VWR Radnor, Pa.) and then triturated 10 times in CHO Serum-Free Media (VWR Radnor, Pa.) to resuspend the cells and to break apart cell aggregates. Cells were counted and the final concentration was set at 2-5 million cells per mL.
(§3) The intracellular solution contained the following: 140 mM CsF, 1 mM/5 mM EGTA/CsOH, 10 mM HEPES, 10 mM NaCl, adjusted to pH 7.3 with CsOH, and osmolality to 320 with sucrose. The external solution contained the following: 145 mM NaCl, 4 mM KCl, 1 mM MgCl2, 2 mM CaCl2, 10 mM HEPES, 10 mM Glucose, adjusted to pH 7.4 with CsOH and osmolality to 305 with sucrose. All chemicals are from Sigma-Aldrich, St. Louis, Mo. In order to test the degree of internal block by test compounds, the compounds were dissolved in internal solution at the indicated test concentration. […] In order to test the degree of external block by test compounds the compounds were dissolved in external solution at the indicated test concentration.
(§4) Automated Patch Clamps were performed on Qube 384 (Sophion Bioscience, Woburn Mass.) with multihole Qchips at a temperature setting of 22 degrees. The whole cells configuration was formed with default Qube seal and break-in parameter. The membrane potential was held at −100 mV before the voltage protocol began. Two voltage protocols were followed.
(§5) Step 1: Cells were held at −100 mV with a depolarized pulse to −20 mV for 10 ms, the interval was set at 5 s. Currents were corrected by default leak subtraction from every pulse. The duration was set at 5 mins.
(§6) Step 2: Cells were held at −100 mV with a depolarized pulse to −20 mV for 10 ms. The frequency was 5 Hz. Currents were corrected by leak subtraction calculated before step 2. The duration was set at 4 mins.
After Step 2, the Qchip was removed from the recording chamber. The internal solution was changed with solutions containing test compounds. Qchips were held at −100 mV without pulsing after being replaced in the recording chamber. The total solution switching time was 8 minutes. After the internal solution exchange, Cells were recorded and step 2 for repeated for 10 minutes.
Data analysis was performed by Sophion Analyzer. Cells were filtered with minimum 50 MOhm seal resistance and minimum 5 nA starting current. The rundown of the currents was corrected with control cells (Non-Drug). The remaining was calculated by averaging last 3 points in the end of experiments. The base line was calculated as the average of last 3 points of Step 2. IC50 curves were plotted with DR-plots/Hill function (a dose-response plot with a Hill fit).
Representative examples of the invention were tested for intracellular inhibition of NaV 1.7 in the automated patch clamp assay. Activity Range is reported as IC50: “++++” (<1 μM), “+++” (1-3 μM), “++” (3-10 μM) or “+” (10-30 μM).

[2] = PAMPA membrane permeability assay; format: physicochemical; settings: pH 7.4 buffer, GIT lipid, 4 hours incubation
Procedure: The PAMPA assay (pION, Inc., Woburn Mass.) was used to determine the ability of compounds of the invention to cross an artificial lipid membrane by passive diffusion. Test compounds were dissolved in DMSO (10 mM) and diluted 200-fold in buffer (pION Inc., pH 7.4) to provide 50 uM stock solutions. Buffer (150 μL) was added to a UV blank plate and stock solutions (150 μL) were transferred to a UV reference plate. The blank and reference spectrum were read using a spectrophotometer. Stock solutions (200 μL) were added to the donor plate of the PAMPA sandwich plate and an accept plate painted with GIT lipid (pION Inc, 5 μL) was placed on top. Buffer (200 μL) was added to the acceptor plate and the PAMPA sandwich plate was incubated for 4 hours. Aliquots (150 μL) from the acceptor plate were added to a UV plate and read as acceptor spectrum. Aliquots (150 μL) of the donor solutions were added to a UV analysis plate and read as donor spectrum. The permeability coefficient of test compounds was calculated using PAMPA Explorer™ software (version 3.5.0.4) based on the AUC of the reference plate, the donor plate, and the acceptor plate.
The PAMPA permeability results (10^−6 cm/s) of representative compounds are reported as “+” (<0.1 10^−6 cm/s), “++” (0.1-2.0 10^−6 cm/s), “+++” (2.0-10.010^−6 cm/s) or “++++” (>10.0 10^−6 cm/s).

[3] = molecular target: T1, NaV1.7; assay: Automated patch clamp (Qube 384), external block of NaV1.7 in HEK293 cells; format: cell-based; settings: compound in external solution, read-out: NaV1.7 Extracellular Inhibition
Procedure: as §1, §2, §3, §4, §5, §6
After Step 2, the external solution was changed with solutions containing test compounds. Qchips were held at −100 mV without pulsing. The total solution switching time was 8 minutes. After the external solution exchange, cells were recorded using the same procedure as step 2 for 10 minutes.
Data analysis was performed by Sophion Analyzer. Data were corrected with control cells (Non-Drug). The IC50 data were plotted with DR-plots/Hill function (a dose-response plot with a Hill fit).
Representative examples of the invention were tested for extracellular inhibition of NaV 1.7 in the automated patch clamp assay. Activity Range is reported as IC50: “++++” (<1 μM), “+++” (1-10 μM), “++” (10-30 μM) or “+” (>30 μM).

T1 sequence (Q15858 whole entry): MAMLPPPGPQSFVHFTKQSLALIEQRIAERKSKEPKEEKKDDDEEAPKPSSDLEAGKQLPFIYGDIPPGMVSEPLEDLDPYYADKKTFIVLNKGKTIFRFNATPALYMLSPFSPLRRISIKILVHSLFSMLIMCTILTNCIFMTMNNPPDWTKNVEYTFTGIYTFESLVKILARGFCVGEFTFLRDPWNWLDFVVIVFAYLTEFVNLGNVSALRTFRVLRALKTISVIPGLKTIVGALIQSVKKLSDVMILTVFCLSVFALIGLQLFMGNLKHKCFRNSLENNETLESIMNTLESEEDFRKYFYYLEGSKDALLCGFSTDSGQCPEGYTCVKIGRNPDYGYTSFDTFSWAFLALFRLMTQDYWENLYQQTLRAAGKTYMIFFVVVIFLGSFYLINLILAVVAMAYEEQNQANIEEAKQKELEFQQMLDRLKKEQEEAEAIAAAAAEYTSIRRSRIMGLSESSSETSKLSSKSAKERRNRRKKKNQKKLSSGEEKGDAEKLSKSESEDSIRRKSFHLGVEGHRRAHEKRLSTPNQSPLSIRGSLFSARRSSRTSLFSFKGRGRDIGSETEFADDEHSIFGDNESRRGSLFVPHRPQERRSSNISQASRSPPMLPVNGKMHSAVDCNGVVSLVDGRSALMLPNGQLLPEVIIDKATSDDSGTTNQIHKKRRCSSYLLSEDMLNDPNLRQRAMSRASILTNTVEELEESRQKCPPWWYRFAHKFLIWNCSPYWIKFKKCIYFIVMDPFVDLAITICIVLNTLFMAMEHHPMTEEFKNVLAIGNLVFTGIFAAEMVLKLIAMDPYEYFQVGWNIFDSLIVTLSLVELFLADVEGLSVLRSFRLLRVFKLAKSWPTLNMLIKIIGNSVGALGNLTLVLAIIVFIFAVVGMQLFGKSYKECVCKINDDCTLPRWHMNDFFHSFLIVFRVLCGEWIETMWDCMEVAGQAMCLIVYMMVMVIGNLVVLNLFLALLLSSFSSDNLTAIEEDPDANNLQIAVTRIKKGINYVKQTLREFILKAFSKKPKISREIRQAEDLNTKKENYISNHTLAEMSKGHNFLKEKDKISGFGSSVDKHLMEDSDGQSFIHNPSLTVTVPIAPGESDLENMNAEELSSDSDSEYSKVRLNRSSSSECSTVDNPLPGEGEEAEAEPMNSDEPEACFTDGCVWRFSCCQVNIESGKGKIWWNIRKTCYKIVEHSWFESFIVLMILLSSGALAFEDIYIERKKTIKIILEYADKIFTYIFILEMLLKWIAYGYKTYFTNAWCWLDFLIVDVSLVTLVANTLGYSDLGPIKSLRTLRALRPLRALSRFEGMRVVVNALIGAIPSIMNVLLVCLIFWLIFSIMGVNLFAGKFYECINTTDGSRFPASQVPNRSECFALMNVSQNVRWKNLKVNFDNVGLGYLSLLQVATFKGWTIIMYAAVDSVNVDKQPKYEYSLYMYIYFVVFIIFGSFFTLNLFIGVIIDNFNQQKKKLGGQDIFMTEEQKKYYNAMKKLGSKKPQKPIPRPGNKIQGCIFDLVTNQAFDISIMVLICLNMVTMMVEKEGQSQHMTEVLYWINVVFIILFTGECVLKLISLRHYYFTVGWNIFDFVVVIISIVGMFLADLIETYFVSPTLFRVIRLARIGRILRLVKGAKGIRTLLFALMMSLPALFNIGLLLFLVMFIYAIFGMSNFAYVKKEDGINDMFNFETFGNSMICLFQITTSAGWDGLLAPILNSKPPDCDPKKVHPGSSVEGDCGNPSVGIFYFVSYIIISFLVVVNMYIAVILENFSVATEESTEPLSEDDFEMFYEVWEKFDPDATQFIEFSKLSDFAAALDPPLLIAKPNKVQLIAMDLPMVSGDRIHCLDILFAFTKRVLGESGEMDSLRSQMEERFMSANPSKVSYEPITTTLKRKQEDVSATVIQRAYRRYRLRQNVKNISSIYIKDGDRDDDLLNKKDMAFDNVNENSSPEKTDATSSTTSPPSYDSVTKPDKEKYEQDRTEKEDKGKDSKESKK

IC50 [1] | PAMPA (10^−6 cm/s) [2] | IC50 [3] | SMILES
1 to 3 µM | + (<0.1 10^−6 cm/s) | – | CCCCOC(=O)C1CCC[N+](CC(=O)Nc2c(C)cccc2C(=O)OC)(Cc2ccccc2)C1.[Br-] (mixture of isomers) [Compound 14]
1 to 3 µM | + (<0.1 10^−6 cm/s) | – | CCCCOC(=O)C1CCC[N+](CC)(CC(=O)Nc2c(C)cccc2C(=O)OC)C1.[I-] (mixture of isomers) [Compound 15]
< 1 µM | + (<0.1 10^−6 cm/s) | 1 to 10 µM | CCOC(=O)C1CCC[N+](CC(=O)Nc2c(C)cccc2C(=O)OC)(Cc2ccccc2)C1 (mixture of isomers) [Compound 16]
1 to 3 µM | + (<0.1 10^−6 cm/s) | – | CC[N+]1(CC(=O)Nc2c(C)cccc2C(=O)OC)CCCC(C(=O)OC2CCCCC2)C1 (mixture of isomers) [Compound 27]
< 1 µM | +++ (2.0-10.010^−6 cm/s) | 10 to 30 µM | CCCNC(=O)C1CCC[N+](CC(=O)Nc2c(C)cccc2C(=O)OC)(Cc2ccccc2)C1 (mixture of isomers) [Compound 28]
< 1 µM | + (<0.1 10^−6 cm/s) | > 30 µM | CNC(=O)C1CCC[N+](CC(=O)Nc2c(C)cccc2C(=O)OC)(Cc2ccccc2)C1 (mixture of isomers) [Compound 31]
< 1 µM | + (<0.1 10^−6 cm/s) | – | COC(=O)c1cccc(C)c1NC(=O)C[N+]1(Cc2ccccc2)CCCC(C(=O)N(C)C)C1 (mixture of isomers) [Compound 40]
1 to 3 µM | + (<0.1 10^−6 cm/s) | – | COC(=O)c1cccc(C)c1NC(=O)C[N+]1(Cc2ccccc2)CCCC(C(=O)N2CCCC2)C1 (mixture of isomers) [Compound 43]
1 to 3 µM | + (<0.1 10^−6 cm/s) | – | CC[N+]1(CC(=O)Nc2c(C)cccc2C(=O)OC)CCCC(C(=O)N2CCCC2)C1 (mixture of isomers) [Compound 54]
< 1 µM | + (<0.1 10^−6 cm/s) | – | CNC(=O)C[N+]1(CC(=O)Nc2c(C)cccc2C(=O)OC)CCCC(c2ccccc2)C1.[Br-] (mixture of isomers) [Compound 59]
< 1 µM | + (<0.1 10^−6 cm/s) | – | COC(=O)c1cccc(C)c1NC(=O)C[N+]1(CC(N)=O)CCCC(c2ccccc2)C1 (mixture of isomers) [Compound 61]
1 to 3 µM | + (<0.1 10^−6 cm/s) | – | CCN(CC)C(=O)C[N+]1(CC(=O)Nc2c(C)cccc2C(=O)OC)CCCC(c2ccccc2)C1 (mixture of isomers) [Compound 62]
< 1 µM | + (<0.1 10^−6 cm/s) | – | COC(=O)C[N+]1(CC(=O)Nc2c(C)cccc2C(=O)OC)CCCC(c2ccccc2)C1 (mixture of isomers) [Compound 64]
< 1 µM | + (<0.1 10^−6 cm/s) | 10 to 30 µM | CC[N+]1(CC(=O)Nc2c(C)cccc2C(=O)OC)CCCC(c2ccccc2)C1 (mixture of isomers) [Compound 65]
< 1 µM | + (<0.1 10^−6 cm/s) | 1 to 10 µM | COC(=O)c1cccc(C)c1NC(=O)C[N+]1(Cc2ccccc2)CCCCCC1 [Compound 1]
< 1 µM | + (<0.1 10^−6 cm/s) | 1 to 10 µM | CCOC(=O)c1cccc(C)c1NC(=O)C[N+]1(Cc2ccccc2)CCCCCC1 [Compound 2]
1 to 3 µM | + (<0.1 10^−6 cm/s) | > 30 µM | COC(=O)c1cccc(C)c1NC(=O)C[N+]1(Cc2ccccc2)CCCCC1.[Br-] [Compound 3]
< 1 µM | + (<0.1 10^−6 cm/s) | 1 to 10 µM | CCOC(=O)c1cccc(C)c1NC(=O)C[N+]1(Cc2ccccc2)CCCCC1.[Br-] [Compound 4]
1 to 3 µM | +++ (2.0-10.010^−6 cm/s) | > 30 µM | COC(=O)c1cccc(C)c1NC(=O)C[N+]1(Cc2ccccc2)CCCC1 [Compound 5]
1 to 3 µM | + (<0.1 10^−6 cm/s) | – | CCCOC(=O)c1cccc(C)c1NC(=O)C[N+]1(Cc2ccccc2)CCCCCC1.[Br-] [Compound 6]
< 1 µM | + (<0.1 10^−6 cm/s) | 1 to 10 µM | Cc1cccc(C(=O)OC(C)C)c1NC(=O)C[N+]1(Cc2ccccc2)CCCCCC1.[Br-] [Compound 7]
1 to 3 µM | + (<0.1 10^−6 cm/s) | – | CCCOC(=O)C1CCC[N+](CC)(CC(=O)Nc2c(C)cccc2C(=O)OC)C1.[I-] (stereo not shown) [Compound 26]
< 1 µM | ++ (0.1-2.0 10^−6 cm/s) | – | CCNC(=O)C1CCC[N+](CC(=O)Nc2c(C)cccc2C(=O)OC)(Cc2ccccc2)C1.O=C([O-])C(F)(F)F (stereo not shown) [Compound 33]
1 to 3 µM | + (<0.1 10^−6 cm/s) | – | COC(=O)c1cccc(C)c1NC(=O)C[N+]1(Cc2ccccc2)CCCC(C(=O)N2CCCCCC2)C1.[Br-] (stereo not shown) [Compound 34]
1 to 3 µM | + (<0.1 10^−6 cm/s) | – | COC(=O)c1cccc(C)c1NC(=O)C[N+]1(Cc2ccccc2)CCCC(C(=O)NC2CCCC2)C1.[Br-] (stereo not shown) [Compound 41]
3 to 10 µM | + (<0.1 10^−6 cm/s) | – | CC[N+]1(CC(=O)Nc2c(C)cccc2C(=O)OC)CCCC(C(=O)NC)C1.[I-] (stereo not shown) [Compound 46]
1 to 3 µM | + (<0.1 10^−6 cm/s) | – | CC[N+]1(CC(=O)Nc2c(C)cccc2C(=O)OC)CCCC(C(=O)NC2CCCCC2)C1.[I-] (stereo not shown) [Compound 56]
3 to 10 µM | + (<0.1 10^−6 cm/s) | – | CCc1cccc(C[N+]2(C(CC)C(=O)Nc3c(C)cccc3C(=O)OC)CCCCC2)c1.O=C[O-] (stereo not shown) [Compound 58]
< 1 µM | + (<0.1 10^−6 cm/s) | – | COC(=O)c1cccc(C)c1NC(=O)C[N+]1(CC(=O)N(C)C)CCCC(c2ccccc2)C1.O=C([O-])C(F)(F)F (stereo not shown) [Compound 60]
< 1 µM | +++ (2.0-10.010^−6 cm/s) | – | CCOC(=O)c1cccc(C)c1NC(=O)C[n+]1cccc(-c2ccccc2)c1 [Compound 67]

— US10927096B2, “Ester substituted ion channel blockers and methods for use” (Nocion Therapeutics, Inc., priority 2019, dated 2021)
